Data reported in patent US20250275959A1, “COMPOUNDS AND METHODS OF THEIR USE” (LEXICON PHARMACEUTICALS, INC., priority 2024, published 2025).
Blank lines part the entries; values can stand above or below the compound they belong to.

Tests used:
[1] = Murine diet-induced obesity (DIO) model, Compounds B-D study; assay type: in vivo, C57BL/6J mice; details: DIO mice; for mean adipose weights versus control group: abdominal adipose tissue
Method: The effects of four representative compounds of the invention were tested in a mouse model of diet-induced obesity (DIO): • Compound A is (R)—N-(tert-butylsulfonyl)-4-(1-(5-(pyridin-3-yloxy)pyridin-2-yl)ethoxy)-3-(trifluoromethyl)benzamide; • Compound B is (R)-4-(1-(5-(cyclopropylmethoxy)pyridin-2-yl)propoxy)-N-((4-(2-(dimethylamino)ethoxy)phenyl)sulfonyl)-2,3-difluorobenzamide; • Compound C is (R)—N-((4-(2-(dimethylamino)ethoxy)piperidin-1l-yl)sulfonyl)-2,3-difluoro-4-(1-(5-(pyridin-2-yloxy)pyridin-2-yl)propoxy)benzamide; and • Compound D is (R)-2,3-difluoro-N-((4-methylpiperazin-1-yl)sulfonyl)-4-(1-(5-(pyridin-2-yloxy)pyridin-2-yl)propoxy)benzamide.
The mice used in these experiments were C57BL/6J mice fed a high-fat diet (D12492 from Research Diets) ad libitum during the study period. The vehicle and test article formulations were 10% w/v Solutol in water.
In this study, three compounds tested at 30 mg/kg were compared against vehicle control over a month. After their acclimation period, DIO mice were equally divided into groups of ten mice each based on body weight. The animals were pre-dosed for three days prior to formal dosing (once per day treatment every group), as well as weight and food intake were recorded from Day −2 onwards. From Day 1 to Day 27, the animals in the dosing group were administered orally by gavage at 5:00 p.m. every day. All animals were fasted overnight after dosing on Day 28 and Day 29. Then the blood (retro-orbital bleed) of mice from each group was collected at 7:00 a.m. to separate out the serum for measuring total cholesterol levels (TC), triglyceride (TG), aminotransferase alanine (ALT), aspartate aminotransferase (AST) and total bilirubin (TBil) levels on Day 29. On day 30, all animals were performed OGTT test (0 min, 15 min, 30 min, 60 min, 90 min and 120 min) and measured insulin levels (0 min, 15 min, 30 min and 60 min). On day 32, all animals were injected insulin after 4 hours fasting, then performed ITT test (0 min, 15 min, 30 min, 60 min and 90 min). On day 33, Epididymal white adipose tissue (eWAT), jejunum, liver, heart and brain were collected; eWAT, liver and heart weights were recorded. All of the adipose tissue in the abdominal cavity was collected and weighted, and the fatty tissue coefficient (body fat ratio) was calculated and then stored at −80° C. for inspection.
• 1. Body weight and Food Consumption: Pre-dose every day from Day −2 onwards. • 2. Day −2,—1 and Day 0: Handle mice and gavage with vehicle. • 3. Day 1˜27: Dose˜5:00 PM. • 4. Day 28: Dose˜5:00 PM. Fast overnight. • 5. Day 29: Determine total cholesterol levels and triglyceride, ALT, AST, total bilirubin levels˜7:00 AM. Resume feeding. • 6. Day 29: Dose˜5:00 PM. Fast overnight. • 7. Day 30: (No drug administration) Oral glucose tolerance test (OGTT) with glucose levels measured at Pre-dose, 15 min, 30 min, 60 min, 90 min and 120 min after the glucose challenge. And insulin levels will be test at time 0 min, 15 min, 30 min and 60 min after the glucose challenge. • 8. Day 30˜31: Dose˜5:00 PM. • 9. Day 32: (No drug administration) ITT test (two days after the OGTT test): Fast 4 h. After insulin injection, the levels of glucose will be measured at Pre-dose, 15 min, 30 min, 60 min and 90 min. • 10. After the ITT test. Collect serum with a terminal bleed from all 50 mice. • 11. Collect epidydimal WAT (eWAT) pad, jejunum, liver, heart, and brain. • 12. Record eWAT, liver, and heart weights. • 13. Before freezing tissue/serum: • (i) Assess Drug Concentration; serum, liver, eWAT, heart, jujenum, and brain. (25 serum samples; 5 mice/group will progress to biomarker study and remaining 25 serum samples saved for future analysis). • 14. Prepare liver, heart and eWAT tissue for histopathology analysis. • (ii) Liver for all 50 mice; HE staining to assess liver steatosis. • (iii) Heart or all 50 mice; HE and DAPI staining to assess cardiac morphology. […]

hACSL5 = hACSL5 (Homo sapiens (Human), UniProt Q9ULC5); experiment: Human ACSL5 coupled enzyme Amplex Red assay; assay type: biochemical; details: read-out: hACSL5 IC50
Summary of the method: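 Amplex Red coupled readout: 1 mM ATP, 25 μM oleate and 30 μM CoA were added to compound-preincubated enzyme (20 nM, residues 33-683, insect-cell expressed, His-tagged) with coupling peroxidase and acyl-CoA oxidase at pH 7.6. Signal was read at 535/590 nm after 10 minutes at 25° C., and Hill fits yielded half-maximal and maximal inhibition.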

Chain of hACSL5 (Q9ULC5 33-683): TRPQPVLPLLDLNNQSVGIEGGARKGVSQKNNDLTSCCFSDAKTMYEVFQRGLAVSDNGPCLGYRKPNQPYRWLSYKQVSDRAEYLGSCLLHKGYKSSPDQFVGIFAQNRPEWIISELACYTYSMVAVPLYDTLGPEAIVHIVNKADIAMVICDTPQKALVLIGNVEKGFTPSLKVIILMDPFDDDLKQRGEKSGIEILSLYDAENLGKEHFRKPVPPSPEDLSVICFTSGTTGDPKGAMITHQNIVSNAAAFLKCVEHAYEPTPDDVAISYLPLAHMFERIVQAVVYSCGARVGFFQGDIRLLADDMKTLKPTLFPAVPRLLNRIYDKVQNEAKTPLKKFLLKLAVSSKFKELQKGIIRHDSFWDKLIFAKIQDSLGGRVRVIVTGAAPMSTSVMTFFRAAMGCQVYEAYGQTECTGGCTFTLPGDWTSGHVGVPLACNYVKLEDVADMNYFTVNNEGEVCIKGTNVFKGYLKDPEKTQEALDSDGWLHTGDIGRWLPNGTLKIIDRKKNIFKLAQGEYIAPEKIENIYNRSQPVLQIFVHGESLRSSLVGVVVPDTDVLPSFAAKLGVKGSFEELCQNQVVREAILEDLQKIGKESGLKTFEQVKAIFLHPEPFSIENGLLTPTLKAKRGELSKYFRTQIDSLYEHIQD

IC50 (hACSL5): < 0.1 µM
Structure (SMILES): CC[C@@H](Oc1ccc(C(=O)NS(=O)(=O)c2ccc(OCCN(C)C)cc2)c(F)c1F)c1ccc(OCC2CC2)cn1 [Compound B, (R)-4-(1-(5-(cyclopropylmethoxy)pyridin-2-yl)propoxy)-N-((4-(2-(dimethylamino)ethoxy)phenyl)sulfonyl)-2,3-difluorobenzamide]
mean body weight versus control group ([1]; 30 mg/kg oral daily): significantly lower than that of the control group from Day 15 to the end
overall food consumption versus control group ([1]; 30 mg/kg oral daily): significantly lower than that of the control group
Body Weight (g)/Day ([1]; 30 mg/kg oral daily, Day 1): 42.2 ± 4.7 g
Body Weight (g)/Day ([1]; 30 mg/kg oral daily, Day 2): 42.2 ± 4.5 g
Body Weight (g)/Day ([1]; 30 mg/kg oral daily, Day 3): 42.3 ± 4.7 g
Body Weight (g)/Day ([1]; 30 mg/kg oral daily, Day 4): 43 ± 3.9 g
Body Weight (g)/Day ([1]; 30 mg/kg oral daily, Day 5): 43.1 ± 3.9 g
Body Weight (g)/Day ([1]; 30 mg/kg oral daily, Day 6): 43 ± 4.1 g
Body Weight (g)/Day ([1]; 30 mg/kg oral daily, Day 7): 42.8 ± 4 g
Body Weight (g)/Day ([1]; 30 mg/kg oral daily, Day 8): 43.1 ± 4.3 g
Body Weight (g)/Day ([1]; 30 mg/kg oral daily, Day 9): 42.9 ± 4.5 g
Body Weight (g)/Day ([1]; 30 mg/kg oral daily, Day 10): 43.3 ± 4.5 g
Body Weight (g)/Day ([1]; 30 mg/kg oral daily, Day 11): 43.1 ± 4.6 g
Body Weight (g)/Day ([1]; 30 mg/kg oral daily, Day 12): 42.7 ± 4.6 g
Body Weight (g)/Day ([1]; 30 mg/kg oral daily, Day 13): 42.5 ± 4.6 g
Body Weight (g)/Day ([1]; 30 mg/kg oral daily, Day 14): 42.3 ± 4.6 g
Body Weight (g)/Day ([1]; 30 mg/kg oral daily, Day 15): 42.6 ± 4.5 g
Body Weight (g)/Day ([1]; 30 mg/kg oral daily, Day 16): 42.5 ± 4.5 g
Body Weight (g)/Day ([1]; 30 mg/kg oral daily, Day 17): 41.7 ± 4.6 g
Body Weight (g)/Day ([1]; 30 mg/kg oral daily, Day 18): 42.1 ± 4.8 g
Body Weight (g)/Day ([1]; 30 mg/kg oral daily, Day 19): 42.2 ± 4.7 g
Body Weight (g)/Day ([1]; 30 mg/kg oral daily, Day 20): 42.2 ± 4.5 g
Body Weight (g)/Day ([1]; 30 mg/kg oral daily, Day 21): 42.3 ± 4.7 g
Body Weight (g)/Day ([1]; 30 mg/kg oral daily, Day 22): 42.4 ± 4.7 g
Body Weight (g)/Day ([1]; 30 mg/kg oral daily, Day 23): 42.6 ± 4.7 g
Body Weight (g)/Day ([1]; 30 mg/kg oral daily, Day 24): 42.6 ± 4.4 g
Body Weight (g)/Day ([1]; 30 mg/kg oral daily, Day 25): 42.5 ± 4.8 g
Body Weight (g)/Day ([1]; 30 mg/kg oral daily, Day 26): 42.8 ± 4.7 g
Body Weight (g)/Day ([1]; 30 mg/kg oral daily, Day 27): 43 ± 4.8 g
Body Weight (g)/Day ([1]; 30 mg/kg oral daily, Day 28): 42.9 ± 4.7 g
Body Weight (g)/Day ([1]; 30 mg/kg oral daily, Day 29): 42.3 ± 4.4 g
Body Weight (g)/Day ([1]; 30 mg/kg oral daily, Day 30): 40.4 ± 4.2 g
Body Weight (g)/Day ([1]; 30 mg/kg oral daily, Day 31): 40.9 ± 4.2 g
Body Weight (g)/Day ([1]; 30 mg/kg oral daily, Day 32): 40.3 ± 4.1 g
Body Weight (g)/Day ([1]; 30 mg/kg, Day 0 (pre-dose)): 42.1 ± 4.8 g
eWAT coefficient versus control group ([1]; 30 mg/kg, Day 33): slightly lower than that of the control group
Body Weight (g)/Day ([1]; 30 mg/kg, Day −1 (pre-dose)): 41.7 ± 4.6 g
Body Weight (g)/Day ([1]; 30 mg/kg, Day −2 (pre-dose)): 42.5 ± 4.5 g
mean adipose weights versus control group ([1]; 30 mg/kg): significantly lower than that of the control group
ITT blood glucose versus control group ([1]; Day 32, at 30 minutes and 60 minutes after insulin): significantly lower than that of the control group

IC50 (hACSL5): < 0.1 µM
Structure (SMILES): CC[C@@H](Oc1ccc(C(=O)NS(=O)(=O)N2CCC(OCCN(C)C)CC2)c(F)c1F)c1ccc(Oc2ccccn2)cn1 [Compound C, (R)-N-((4-(2-(dimethylamino)ethoxy)piperidin-1-yl)sulfonyl)-2,3-difluoro-4-(1-(5-(pyridin-2-yloxy)pyridin-2-yl)propoxy)benzamide]
mean body weight versus control group ([1]; 30 mg/kg oral daily): significantly lower than that of the control group from Day 23
overall food consumption versus control group ([1]; 30 mg/kg oral daily): significantly lower than that of the control group
Body Weight (g)/Day ([1]; 30 mg/kg oral daily, Day 1): 45 ± 4.9 g
Body Weight (g)/Day ([1]; 30 mg/kg oral daily, Day 2): 44.8 ± 5 g
Body Weight (g)/Day ([1]; 30 mg/kg oral daily, Day 3): 44.3 ± 4.9 g
Body Weight (g)/Day ([1]; 30 mg/kg oral daily, Day 4): 44.3 ± 4.9 g
Body Weight (g)/Day ([1]; 30 mg/kg oral daily, Day 5): 44.1 ± 4.9 g
Body Weight (g)/Day ([1]; 30 mg/kg oral daily, Day 6): 44 ± 4.7 g
Body Weight (g)/Day ([1]; 30 mg/kg oral daily, Day 7): 43.5 ± 4.9 g
Body Weight (g)/Day ([1]; 30 mg/kg oral daily, Day 8): 44 ± 5 g
Body Weight (g)/Day ([1]; 30 mg/kg oral daily, Day 9): 44.2 ± 4.8 g
Body Weight (g)/Day ([1]; 30 mg/kg oral daily, Day 10): 44.2 ± 4.7 g
Body Weight (g)/Day ([1]; 30 mg/kg oral daily, Day 11): 44.4 ± 4.8 g
Body Weight (g)/Day ([1]; 30 mg/kg oral daily, Day 12): 43.9 ± 4.9 g
Body Weight (g)/Day ([1]; 30 mg/kg oral daily, Day 13): 43.7 ± 4.7 g
Body Weight (g)/Day ([1]; 30 mg/kg oral daily, Day 14): 43.7 ± 4.7 g
Body Weight (g)/Day ([1]; 30 mg/kg oral daily, Day 15): 43.9 ± 4.8 g
Body Weight (g)/Day ([1]; 30 mg/kg oral daily, Day 16): 44.1 ± 4.8 g
Body Weight (g)/Day ([1]; 30 mg/kg oral daily, Day 17): 43.5 ± 4.7 g
Body Weight (g)/Day ([1]; 30 mg/kg oral daily, Day 18): 43.6 ± 4.6 g
Body Weight (g)/Day ([1]; 30 mg/kg oral daily, Day 19): 43.9 ± 4.9 g
Body Weight (g)/Day ([1]; 30 mg/kg oral daily, Day 20): 44.1 ± 4.8 g
Body Weight (g)/Day ([1]; 30 mg/kg oral daily, Day 21): 44.2 ± 5 g
Body Weight (g)/Day ([1]; 30 mg/kg oral daily, Day 22): 44.1 ± 5.1 g
Body Weight (g)/Day ([1]; 30 mg/kg oral daily, Day 23): 44.1 ± 5.3 g
Body Weight (g)/Day ([1]; 30 mg/kg oral daily, Day 24): 43.8 ± 5.3 g
Body Weight (g)/Day ([1]; 30 mg/kg oral daily, Day 25): 43.9 ± 5.2 g
Body Weight (g)/Day ([1]; 30 mg/kg oral daily, Day 26): 43.9 ± 5.2 g
Body Weight (g)/Day ([1]; 30 mg/kg oral daily, Day 27): 44.1 ± 5.2 g
Body Weight (g)/Day ([1]; 30 mg/kg oral daily, Day 28): 43.9 ± 5.3 g
Body Weight (g)/Day ([1]; 30 mg/kg oral daily, Day 29): 43.2 ± 5.2 g
Body Weight (g)/Day ([1]; 30 mg/kg oral daily, Day 30): 41.4 ± 5 g
Body Weight (g)/Day ([1]; 30 mg/kg oral daily, Day 31): 41.6 ± 5.2 g
Body Weight (g)/Day ([1]; 30 mg/kg oral daily, Day 32): 41 ± 5 g
Body Weight (g)/Day ([1]; 30 mg/kg, Day 0 (pre-dose)): 44.9 ± 5.1 g
Body Weight (g)/Day ([1]; 30 mg/kg, Day −1 (pre-dose)): 44.9 ± 5.3 g
Body Weight (g)/Day ([1]; 30 mg/kg, Day −2 (pre-dose)): 44.8 ± 5.2 g
mean adipose weights versus control group ([1]; 30 mg/kg): significantly lower than that of the control group
ITT blood glucose versus control group ([1]; Day 32, at 15, 30, 60 and 90 minutes after insulin): significantly lower than that of the control group
